For eleven molecules, IC50, EC50 and Activity results are on record in ChEMBL document CHEMBL5126517, “Structure-Activity Relationship in the Leucettine Family of Kinase Inhibitors” (J Med Chem, 2022).

What is called IC50 is the concentration needed to halve the response being measured. By EC50 is commonly meant the concentration giving half of the maximal effect.

Series [1] addresses Serine/threonine-protein kinase pim-1 (Homo sapiens, UniProt P11309). Briefly: Inhibition of human recombinant Pim1 expressed in Escherichia coli using histone H1 as substrate incubated for 30 mins in presence of ATP by scintillation counting method.
The target of series [2] is T1, Dual specificity tyrosine-phosphorylation-regulated kinase 2 (Homo sapiens, UniProt Q92630).
T1 sequence (Q92630 whole entry): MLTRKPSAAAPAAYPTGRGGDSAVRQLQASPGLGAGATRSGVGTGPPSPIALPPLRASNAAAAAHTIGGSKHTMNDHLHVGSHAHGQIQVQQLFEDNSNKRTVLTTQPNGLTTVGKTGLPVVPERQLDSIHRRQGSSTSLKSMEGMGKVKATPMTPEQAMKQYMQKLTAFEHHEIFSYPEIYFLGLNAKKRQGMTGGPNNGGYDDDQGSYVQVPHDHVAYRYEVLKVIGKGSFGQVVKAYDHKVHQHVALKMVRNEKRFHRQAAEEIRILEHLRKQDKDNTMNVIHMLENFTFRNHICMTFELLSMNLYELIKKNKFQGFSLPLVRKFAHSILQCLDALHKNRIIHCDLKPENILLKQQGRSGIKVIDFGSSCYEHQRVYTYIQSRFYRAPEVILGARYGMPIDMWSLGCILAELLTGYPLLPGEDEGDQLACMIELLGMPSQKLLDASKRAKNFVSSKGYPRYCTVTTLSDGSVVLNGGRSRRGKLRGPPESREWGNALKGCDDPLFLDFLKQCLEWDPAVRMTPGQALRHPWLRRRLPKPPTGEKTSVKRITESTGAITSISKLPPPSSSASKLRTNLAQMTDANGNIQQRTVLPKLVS
Kind of series: Inhibition of GST-fused human recombinant DYRK2 expressed in Escherichia coli using GRSRSRSRSRSR peptide as substrate incubated for 30 mins in presence of ATP by scintillation counting method.

The target of series [3] is Dual specificity protein kinase CLK4 (Mus musculus, UniProt O35493). Kind of series: Inhibition of GST-fused mouse recombinant CLK4 expressed in Escherichia coli using GRSRSRSRSRSR peptide as substrate incubated for 30 mins in presence of ATP by scintillation counting method.
Series [4] deals with Dual specificity protein kinase CLK3 (Mus musculus, UniProt O35492). Kind of series: Inhibition of GST-fused mouse recombinant CLK3 expressed in Escherichia coli using GRSRSRSRSRSR peptide as substrate incubated for 30 mins in presence of ATP by scintillation counting method.
For series [5], the target named is Dual specificity tyrosine-phosphorylation-regulated kinase 1B (Homo sapiens, UniProt Q9Y463).
The subject of the next series is HT-22. Kind of series: Neuroprotective activity against glutamate-induced cell death in mouse HT-22 cells treated for 24 hrs by MTS assay. It is filed as functional, cell-based. Particulars: HT-22, 24 h.
The target of series [6] is Dual specificity tyrosine-phosphorylation-regulated kinase 1A (Homo sapiens, UniProt Q13627). Briefly: Inhibition of GST-fused human recombinant DYRK1A expressed in Escherichia coli using GRSRSRSRSRSR peptide as substrate incubated for 30 mins in presence of ATP by scintillation counting method.
In a further series the target is Casein kinase 2 (Homo sapiens, UniProt P67870+P68400+P19784+Q8NEV1). Kind of series: Inhibition of human recombinant CK2 using RRRDDDSDDD peptide as substrate incubated for 30 mins in presence of ATP by scintillation counting method. It is filed as protein assay.
The target in series [7] is Dual specificity protein kinase CLK1 (Mus musculus, UniProt P22518). Briefly: Inhibition of GST-fused mouse recombinant CLK1 expressed in Escherichia coli using GRSRSRSRSRSR peptide as substrate incubated for 30 mins in presence of ATP by scintillation counting method.
Series [8] concerns the target Glycogen synthase kinase-3 (Sus scrofa, UniProt B2LUN4+I6LNT8). Briefly: Inhibition of porcine brain GSK-3alpha/beta using YRRAAVPPSPSLSRHSSPHQpSEDEEE as substrate incubated for 30 mins in presence of ATP by scintillation counting method. Type of series: tissue-based.
In another series the test system is U2OS. Briefly: Induction of PI3K/mTor-dependent autophagy in human U2OS cells assessed as number of LC3 foci per cell at 10 uM measured after 4 hrs. Type of series: cell-based. Particulars: filed as activator.
Series [9] concerns the target T2, Dual specificity tyrosine-phosphorylation-regulated kinase 3 (Homo sapiens, UniProt O43781).
T2 sequence (O43781 whole entry): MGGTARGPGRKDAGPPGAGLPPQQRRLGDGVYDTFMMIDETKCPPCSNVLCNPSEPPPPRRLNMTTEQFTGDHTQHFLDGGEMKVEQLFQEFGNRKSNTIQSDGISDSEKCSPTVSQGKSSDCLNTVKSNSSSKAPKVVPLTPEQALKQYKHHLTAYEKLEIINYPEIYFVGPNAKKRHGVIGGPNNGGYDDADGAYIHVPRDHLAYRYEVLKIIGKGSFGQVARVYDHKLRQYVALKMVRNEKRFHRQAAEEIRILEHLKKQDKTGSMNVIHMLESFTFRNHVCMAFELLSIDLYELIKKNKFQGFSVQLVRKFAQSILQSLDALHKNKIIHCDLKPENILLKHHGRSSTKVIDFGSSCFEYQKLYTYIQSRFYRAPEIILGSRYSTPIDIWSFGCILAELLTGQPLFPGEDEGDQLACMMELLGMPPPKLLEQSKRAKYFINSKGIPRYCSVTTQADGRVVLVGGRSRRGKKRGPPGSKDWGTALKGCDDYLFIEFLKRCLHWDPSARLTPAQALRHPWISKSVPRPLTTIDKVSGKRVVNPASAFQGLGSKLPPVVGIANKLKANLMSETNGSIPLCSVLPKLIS
Kind of series: Inhibition of GST-fused human recombinant DYRK3 expressed in Escherichia coli using GRSRSRSRSRSR peptide as substrate incubated for 30 mins in presence of ATP by scintillation counting method.

For a further series, the target named is Cannabinoid receptor 1 (Homo sapiens, UniProt P21554). Kind of series: Antagonist activity at CP-55940-activated CB1 receptor (unknown origin) at 10 uM by beta-arrestin assay relative to control. It is filed as functional. Further details: scale not given: the % may be the effect or the level left.
Series [10] is described as follows: Neurotoxicity against mouse HT-22 cells assessed as cell survival at 20 uM treated for 24 hrs by MTS assay. It is filed as toxicity, cell-based. The settings on record: ht-22, 24 h. For orientation: Tetrazolium assays rely on reduction of a dye to a coloured formazan, in cell work by metabolically active cells.
Series [11] addresses Dual specificity protein kinase CLK2 (Mus musculus, UniProt O35491). Kind of series: Inhibition of mouse recombinant GST-fused CLK2 expressed in Escherichia coli using GRSRSRSRSRSR peptide as substrate incubated for 30 mins in presence of ATP by scintillation counting method.

Cannabinoid receptor 1, sequence (P21554 whole entry): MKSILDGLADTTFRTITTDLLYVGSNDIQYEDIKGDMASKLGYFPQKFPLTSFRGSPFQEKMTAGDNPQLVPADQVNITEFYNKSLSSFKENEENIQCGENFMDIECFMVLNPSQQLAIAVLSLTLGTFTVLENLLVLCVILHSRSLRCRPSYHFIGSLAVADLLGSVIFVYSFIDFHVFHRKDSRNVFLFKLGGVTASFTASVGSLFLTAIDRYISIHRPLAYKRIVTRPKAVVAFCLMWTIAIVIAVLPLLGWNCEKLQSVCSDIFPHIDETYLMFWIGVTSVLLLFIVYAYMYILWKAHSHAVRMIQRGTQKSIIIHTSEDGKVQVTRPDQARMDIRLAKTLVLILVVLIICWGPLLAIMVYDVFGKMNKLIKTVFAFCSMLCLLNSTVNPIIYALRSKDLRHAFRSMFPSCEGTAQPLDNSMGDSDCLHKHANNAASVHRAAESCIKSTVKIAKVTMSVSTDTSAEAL
Dual specificity protein kinase CLK1, sequence (P22518 whole entry, the tested form may be a part): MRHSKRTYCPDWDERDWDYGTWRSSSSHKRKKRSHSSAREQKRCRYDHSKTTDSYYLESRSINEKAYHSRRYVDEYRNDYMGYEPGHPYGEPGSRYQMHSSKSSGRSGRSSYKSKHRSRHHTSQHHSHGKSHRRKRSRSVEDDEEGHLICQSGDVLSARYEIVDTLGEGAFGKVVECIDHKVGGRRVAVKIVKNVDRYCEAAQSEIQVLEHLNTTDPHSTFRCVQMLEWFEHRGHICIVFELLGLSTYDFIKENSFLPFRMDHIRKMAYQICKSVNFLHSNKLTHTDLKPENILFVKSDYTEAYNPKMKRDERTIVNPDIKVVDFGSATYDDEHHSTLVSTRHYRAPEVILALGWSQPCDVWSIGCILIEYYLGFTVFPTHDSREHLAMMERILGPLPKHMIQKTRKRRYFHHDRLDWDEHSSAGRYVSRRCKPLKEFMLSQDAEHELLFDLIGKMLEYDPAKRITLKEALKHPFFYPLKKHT
Serine/threonine-protein kinase pim-1, sequence (P11309 whole entry): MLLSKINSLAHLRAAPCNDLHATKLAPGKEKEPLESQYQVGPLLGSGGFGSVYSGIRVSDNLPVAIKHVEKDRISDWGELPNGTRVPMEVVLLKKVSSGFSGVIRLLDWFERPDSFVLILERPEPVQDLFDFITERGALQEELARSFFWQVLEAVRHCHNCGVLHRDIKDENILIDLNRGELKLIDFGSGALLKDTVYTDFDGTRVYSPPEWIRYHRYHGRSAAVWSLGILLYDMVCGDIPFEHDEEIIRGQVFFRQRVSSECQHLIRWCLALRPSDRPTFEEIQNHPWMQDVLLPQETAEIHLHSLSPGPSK
Dual specificity protein kinase CLK3, sequence (O35492 whole entry, the tested form may be a part): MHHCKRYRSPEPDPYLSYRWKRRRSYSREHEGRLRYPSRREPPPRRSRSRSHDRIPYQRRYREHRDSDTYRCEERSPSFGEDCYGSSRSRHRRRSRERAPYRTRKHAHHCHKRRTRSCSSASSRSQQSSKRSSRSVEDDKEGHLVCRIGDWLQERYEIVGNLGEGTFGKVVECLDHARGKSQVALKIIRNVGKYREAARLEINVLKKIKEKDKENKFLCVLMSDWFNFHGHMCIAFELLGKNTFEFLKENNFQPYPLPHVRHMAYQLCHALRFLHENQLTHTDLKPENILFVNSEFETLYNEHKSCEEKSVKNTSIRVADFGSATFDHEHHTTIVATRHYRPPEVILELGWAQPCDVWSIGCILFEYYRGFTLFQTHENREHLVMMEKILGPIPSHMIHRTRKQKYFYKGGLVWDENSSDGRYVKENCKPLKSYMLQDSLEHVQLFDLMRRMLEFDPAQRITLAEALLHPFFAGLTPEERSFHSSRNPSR
Dual specificity protein kinase CLK2, sequence (O35491 whole entry, the tested form may be a part): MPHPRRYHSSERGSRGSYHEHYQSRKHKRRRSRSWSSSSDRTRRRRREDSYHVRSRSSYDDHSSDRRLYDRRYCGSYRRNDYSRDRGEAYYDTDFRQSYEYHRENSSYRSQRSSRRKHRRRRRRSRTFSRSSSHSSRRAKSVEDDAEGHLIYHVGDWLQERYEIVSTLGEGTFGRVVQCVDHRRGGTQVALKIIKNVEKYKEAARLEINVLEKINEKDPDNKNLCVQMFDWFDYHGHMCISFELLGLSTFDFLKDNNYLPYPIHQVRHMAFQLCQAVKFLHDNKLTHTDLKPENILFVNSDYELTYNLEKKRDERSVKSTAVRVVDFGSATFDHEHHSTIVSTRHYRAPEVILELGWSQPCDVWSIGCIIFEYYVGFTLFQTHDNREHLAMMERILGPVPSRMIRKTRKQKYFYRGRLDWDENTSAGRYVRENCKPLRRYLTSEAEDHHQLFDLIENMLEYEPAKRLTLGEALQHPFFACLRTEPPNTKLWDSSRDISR
Dual specificity tyrosine-phosphorylation-regulated kinase 1B, sequence (Q9Y463 whole entry): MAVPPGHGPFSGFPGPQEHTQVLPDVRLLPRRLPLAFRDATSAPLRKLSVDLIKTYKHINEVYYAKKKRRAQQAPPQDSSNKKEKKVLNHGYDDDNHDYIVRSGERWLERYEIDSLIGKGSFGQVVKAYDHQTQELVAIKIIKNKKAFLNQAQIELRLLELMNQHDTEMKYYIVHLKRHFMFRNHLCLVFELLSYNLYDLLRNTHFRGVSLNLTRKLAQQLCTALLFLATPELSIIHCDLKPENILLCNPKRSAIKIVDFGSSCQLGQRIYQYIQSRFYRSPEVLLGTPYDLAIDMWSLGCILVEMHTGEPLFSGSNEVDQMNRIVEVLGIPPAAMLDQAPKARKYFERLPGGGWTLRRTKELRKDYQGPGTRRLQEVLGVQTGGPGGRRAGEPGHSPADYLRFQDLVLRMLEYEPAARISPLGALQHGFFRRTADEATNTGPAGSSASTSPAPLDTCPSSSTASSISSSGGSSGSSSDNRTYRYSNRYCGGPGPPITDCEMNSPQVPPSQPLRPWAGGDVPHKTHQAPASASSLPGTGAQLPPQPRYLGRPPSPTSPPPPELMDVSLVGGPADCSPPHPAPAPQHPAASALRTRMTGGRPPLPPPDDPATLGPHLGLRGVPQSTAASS
Dual specificity protein kinase CLK4, sequence (O35493 whole entry, the tested form may be a part): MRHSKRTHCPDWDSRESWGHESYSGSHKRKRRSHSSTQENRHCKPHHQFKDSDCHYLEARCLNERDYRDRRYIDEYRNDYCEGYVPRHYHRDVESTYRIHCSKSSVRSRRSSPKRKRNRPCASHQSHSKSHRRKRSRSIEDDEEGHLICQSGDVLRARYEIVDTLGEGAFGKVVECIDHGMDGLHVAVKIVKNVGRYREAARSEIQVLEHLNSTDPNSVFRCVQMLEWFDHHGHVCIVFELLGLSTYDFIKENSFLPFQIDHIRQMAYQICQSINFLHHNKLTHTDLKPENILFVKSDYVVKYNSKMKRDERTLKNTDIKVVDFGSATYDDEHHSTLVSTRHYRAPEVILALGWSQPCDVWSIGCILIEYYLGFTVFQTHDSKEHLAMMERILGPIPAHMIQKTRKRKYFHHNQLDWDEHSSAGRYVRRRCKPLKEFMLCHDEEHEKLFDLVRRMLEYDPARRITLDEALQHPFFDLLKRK

Regarding `CCCCCOc1ccc(NC2=N/C(=C\c3ccc4c(c3)OCO4)C(=O)N2)cc1`, the IC50 in [1] was ≥ 10000 nM; in [2], 510 nM; in series [3] it was 620 nM; in [4], > 10000 nM; in [5], 2300 nM; in [6], 710 nM. In addition, the IC50 is 1300 nM on Casein kinase 2; 850 nM in series [7]; > 10000 nM in series [8]; 7000 nM in [9]; 3100 nM in [11]. This molecule also returned an EC50 in the series on HT-22 of 1140 nM. Moreover, the Activity was 7 in the series with U2OS, 37.4% on Cannabinoid receptor 1 and “Non-Toxic” in series [10].
`COc1ccc(/C=C2\N=C(Nc3ccccc3)NC2=O)cc1O`: the IC50 in [1] is 1900 nM; in [2], 2100 nM; in [3], 4000 nM; in [5], 2800 nM; in series [6] it was 2000 nM; on Casein kinase 2 it was > 10000 nM. The values for the IC50 in [7], in series [9] and in series [11] were 4300 nM, 2400 nM and ≥ 10000 nM, respectively. Further, in the series on HT-22, the half-maximal effective concentration (EC50) was determined as 5570 nM. For the same molecule, the Activity in the series with U2OS is 6.5; at Cannabinoid receptor 1 (filed as antagonist), 46.8%; in series [10], “Non-Toxic”.
On to `O=C1NC(Nc2ccc(N3CCNCC3)cc2)=N/C1=C\c1ccc2c(c1)OCO2`, for which the IC50 in series [1] was found to be 6100 nM; in series [2], 410 nM; in series [3], 520 nM; in [4], 9000 nM; in [5], 950 nM; in series [6], 350 nM. Moreover, the half-maximal inhibitory concentration (IC50) at Casein kinase 2 came out at 2300 nM; in series [7], 420 nM; in series [8] it was 2400 nM; in series [9], 1200 nM; in series [11], 1800 nM. In the series on HT-22, this molecule yielded an EC50 of 910 nM. Besides, the Activity with U2OS is 7.3; on Cannabinoid receptor 1 it was -47.5%; in [10], “Non-Toxic”.
For `O=C1NC(Nc2ccc(Oc3ccccc3)cc2)=N/C1=C\c1ccc2c(c1)OCO2`, the IC50 in series [2] is 1100 nM; in series [3], 760 nM; in series [5], 4000 nM; in series [6], 920 nM; in series [7], 1800 nM; in [8] it was > 10000 nM. Moreover, in series [11], the IC50 was > 10000 nM. The response in the series with HT-22 was half-maximal at 2400 nM (EC50). The figures for the Activity (in the series with U2OS; at Cannabinoid receptor 1 (filed as antagonist); in series [10]) were 4.6, 73.5% and “Non-Toxic”, respectively.
On to `O=C1NC(Nc2ccccc2)=N/C1=C\c1ccc(F)cc1`, for which the IC50 in series [1] is > 10000 nM; in series [3], 2800 nM; in series [4], > 10000 nM; in series [5] it was > 10000 nM; in series [6], 9500 nM; at Casein kinase 2 it was 3200 nM. In addition, the results for the IC50 in [7] and in series [11] were 3200 nM and > 10000 nM, respectively. The same molecule returned an EC50 with HT-22 of 2850 nM. Moreover, the Activity in the series on U2OS is 20.2; on Cannabinoid receptor 1 (filed as antagonist), 78%; in series [10], “Non-Toxic”.
In the case of `O=C1NC(Nc2ccccc2)=N/C1=C\c1ccc2c(c1)CCO2`, the IC50 was 3200 nM in series [1]; 41 nM in series [2]; 19 nM in series [3]; 1200 nM in series [4]; 88 nM in series [5]; 32 nM in series [6]. Also, the IC50 on Casein kinase 2 was 1100 nM; in series [7], 22 nM; in [8] it was > 10000 nM; in [9], 240 nM; in series [11], 120 nM. This molecule also registered an EC50 with HT-22 of 7000 nM. Moreover, the Activity with U2OS was 10.2; at Cannabinoid receptor 1 (filed as antagonist) it was 96.4%; in [10] it was “Non-Toxic”.
Consider `Cc1ccc(NC2=N/C(=C\c3ccc4c(c3)OCO4)C(=O)N2)c(C)c1`, for which the IC50 in series [1] is 2500 nM; in series [2] it was 75 nM; in series [3] it was 140 nM; in series [4], > 10000 nM; in [5] it was 160 nM; in series [6], 72 nM. In addition, the IC50 on Casein kinase 2 is 2400 nM; in [7] it was 240 nM; in series [8] it was 1400 nM; in series [9], 950 nM; in series [11] it was 1100 nM. The molecule also registered an EC50 in the series with HT-22 of 8000 nM. The figures for the Activity (in the series with U2OS; at Cannabinoid receptor 1 (filed as antagonist); in series [10]) were 5.6, 65.6% and “Non-Toxic”, respectively.
In turn, `O=C1NC(Nc2ccccc2)=N/C1=C\c1ccccc1` registered a concentration giving a half-maximal response (EC50) in the series on HT-22 of 7200 nM. In addition, the Activity with U2OS is 7.7; on Cannabinoid receptor 1 (filed as antagonist), 44.6%; in series [10], “Non-Toxic”.
Turning to `[2H]C1([2H])Oc2ccc(/C=C3\N=C(Nc4ccccc4)NC3=O)cc2O1`, the IC50 amounted to 500 nM in series [4]; 1600 nM at Casein kinase 2; 40 nM in series [7]; 750 nM in series [8]; 170 nM in series [11]. In the series on HT-22, this molecule returned an EC50 of 4900 nM. For the same molecule, the Activity entry in series [10] is recorded as “Non-Toxic”.
With `CCCCCCc1ccc(NC2=N/C(=C\c3ccc4c(c3)OCO4)C(=O)N2)cc1`, the IC50 is 9500 nM in series [2]; 4100 nM in [3]; > 10000 nM in series [5]; > 10000 nM in series [6]; > 10000 nM in series [7]. In the series with HT-22, this molecule returned an EC50 of 1190 nM. Further, the Activity with U2OS is 6.5; on Cannabinoid receptor 1 (filed as antagonist) it was 75%; in series [10], “Non-Toxic”.
As to `COc1cc(/C=C2\N=C(Nc3ccc(N4CCNCC4)cc3)NC2=O)ccc1O`, the IC50 in [1] is > 10000 nM; in [2], 2100 nM; in [3] it was 1200 nM; in [4] it was > 10000 nM; in series [5], 2200 nM; in series [6], 1300 nM. Besides, the IC50 was determined as 1200 nM in series [7], 6500 nM in [8], 1500 nM in series [9] and 3500 nM in series [11]. For the same molecule, in the series with HT-22, the EC50 worked out at 7000 nM. In addition, the Activity with U2OS is 6.3; at Cannabinoid receptor 1, -26.8%; in series [10], “Non-Toxic”.
